Where two headings read alike, the source gives them in different places.

We go through seven compounds from patent US11661404B2, “Prodrug compounds activated by AKR1C3 and their use for treating hyperproliferative disorders” (priority 2018, dated 2023).

What all share (assay type): cell-based, human
Data set [1] deals with wild-type H460 lung cancer cells. The experiment in a line: Anti-proliferative IC50 assay, wild-type H460. The settings on record: for IC50: Homo sapiens. The method, then: Four hundred cells were seeded in a volume of 100 μL in each well of a 96-well plate. The cells were left in a humidified incubator (37° C., 5% CO2) for 2 hours in order to enable attachment to the surface of the wells prior to compound addition. All compounds were prepared as stocks in DMSO and stored at −80° C. Frozen stocks of compounds were thawed immediately prior to addition to cells. Working solutions of each compound were made in α-MEM+5% FBS (v/v) at 3 times the required final concentration for the top well. The final concentration of DMSO in the α-MEM solution was ensured to not exceed 1% of the total volume. 50 μL of the working solution was added to the top wells (in duplicates) and gently mixed. The solubility of some compounds precluded the working solution in α-MEM to be 3 times the desired top well concentration. […] A 3-fold serial dilution was carried out along the plate starting from the top well. The first column of wells on the plate served as blanks (containing α-MEM+FBS) and the second column served as control wells (containing cells with no compound added). Following compound addition, the plates were incubated for 4 hours in a humidified incubator (37° C., 5% CO2).
Following the 4 hour compound exposure, the 96-well plates were washed three times by aspirating media with an Immuno Washer (Nunc) and each well replaced with 150 μL of α-MEM+5% (v/v) FBS+1% (v/v) P/S. The plates were left in a humidified incubator (37° C., 5% CO2) for 5 days to enable cell growth. The cells in 96-well plates were fixed 5 days after compound exposure by adding 50 μL of a 40% (w/v) trichloroacetic acid (TCA) solution so as to obtain a final TCA concentration of 10% in each well. The plates were left in the refrigerator (4° C.) for 1 hour and subsequently rinsed 3 times in tap water. Any excess water was left to drain and the cells were stained with 50 μL of 0.4% (w/v) sulforhodamine B (SRB). The plates with the SRB stain were left in the dark for 30 minutes. Excess stain was removed from the wells by rinsing the plates 4 times in water containing 1% (v/v) acetic acid. The stain was solubilised by adding 100 μL of 10 mM unbuffered Tris (pH 10.5) to each well and the plates were left in a shaker in a dark environment at room temperature for at least 1 hour. The absorbance values of the wells were determined by an ELx 808 Absorbance Microplate Reader (Bio-Tek Instruments, Winooski, Vt., USA), with the wavelength of the measurement filter set at 490 nm and a reference filter set at 450 nm. The absorbance of the reference filter was subtracted from the measurement filter to obtain a final absorbance of λ490-450 nm. The absorbance data was analysed and IC50 values determined by the KC4 microplate data analysis software (KC4™ V3.4, Bio-Tek).
Anti-proliferative IC50 assays were repeated as described above including the addition of 3 μM SN34037, a selective and potent small molecule inhibitor of AKR1C3.
Materials and methods used are as described for Example 9.

In data set [2] the test system is wild-type HCT116 colon cancer cells. The experiment in a line: Anti-proliferative IC50 assay (SRB), wild-type HCT116.
Data set [3] concerns HCT116 colon cancer cells engineered to over-express AKR1C3. The experiment in a line: Anti-proliferative IC50 assay (SRB), HCT116 over-expressing AKR1C3. The settings on record: for IC50 Ratio WT:AKR1C3: HCT116-WT vs HCT116-AKR1C3.
Setting [4] is: NCI-H460, read-out: H460-WT +AKR1C3 Inhibitor Anti-proliferative IC50.
[5] abbreviates: NCI-H460, read-out: H460-WT Anti-proliferative IC50.
Setting [6] is: Homo sapiens, HCT-116, read-out: HCT116-WT IC50.
Setting [7] is: read-out: HCT116-WT + AKR1C3 Inhibitor IC50, with 3 μM SN34037.
The mark [8] stands for this setting: Homo sapiens, HCT-116, read-out: HCT116-AKR1C3 IC50.
The mark [9] stands for this setting: read-out: HCT116-AKR1C3 + AKR1C3 Inhibitor IC50, with 3 μM SN34037.

Take `CN1CCN(C(=O)c2cc([N+](=O)[O-])ccc2N(CCBr)CCOS(C)(=O)=O)CC1` [SN34454, reference compound]: the concentration for half-maximal inhibition (IC50) in data set [1] (setting [4]) amounted to 46 µM; in data set [1] (setting [5]), 0.406 µM.
Regarding `CN1CCN(C(=O)c2cc([N+](=O)[O-])ccc2N(CCBr)CCBr)CC1` [SN34118, reference compound], the half-inhibitory concentration (IC50) in data set [2] (setting [6]) came to 38.2 µM; in data set [2] (setting [7]), 29.3 µM; in data set [3] (setting [8]), 389 nM; in data set [3] (setting [9]) it was 23900 nM; in data set [1] (setting [4]), 28.9 µM; in data set [1] (setting [5]), 1.56 µM. In addition, the “IC50 Ratio WT:AKR1C3” value in data set [3] is on record as 98.
On to `O=[N+]([O-])c1ccc(N(CCBr)CCBr)c(S(=O)(=O)N2CCN(CC(O)CO)CC2)c1` (stereo not drawn) [Compound 566, 3-(4-((2-(bis(2-bromoethyl)amino)-5-nitrophenyl)sulfonyl)piperazin-1-yl)propane-1,2-diol], for which the IC50 was 3.34 µM in data set [2] (setting [6]); 3.93 µM in data set [2] (setting [7]); 1 nM in data set [3] (setting [8]); 1720 nM in data set [3] (setting [9]); 4.03 µM in data set [1] (setting [4]); 0.004 µM in data set [1] (setting [5]). For the same compound, the “IC50 Ratio WT:AKR1C3” value in data set [3] stood at 3340.
As to `CS(=O)(=O)OCCN(CCBr)c1ccc([N+](=O)[O-])cc1S(=O)(=O)N1CCN(CC(O)CO)CC1` (stereo not drawn) [Compound 605, 2-((2-bromoethyl)(2-((4-(2,3-dihydroxypropyl)piperazin-1-yl)sulfonyl)-4-nitrophenyl)amino)ethyl methanesulfonate], the IC50 in data set [2] (setting [6]) was found to be 6.18 µM; in data set [2] (setting [7]), 6.9 µM; in data set [3] (setting [8]), 9 nM; in data set [3] (setting [9]), 3540 nM; in data set [1] (setting [4]) it was 7.8 µM; in data set [1] (setting [5]), 0.025 µM. Also, the “IC50 Ratio WT:AKR1C3” value in data set [3] is recorded as 687.
Consider `CN1CCN(S(=O)(=O)c2cc([N+](=O)[O-])ccc2N(CCBr)CCOS(C)(=O)=O)CC1` [Compound 602, 2-((2-bromoethyl)(2-((4-methylpiperazin-1-yl)sulfonyl)-4-nitrophenyl)amino)ethyl methanesulfonate], for which the half-maximal inhibitory concentration (IC50) stood at 4.26 µM in data set [2] (setting [6]); 4.33 µM in data set [2] (setting [7]); 1 nM in data set [3] (setting [8]); 1780 nM in data set [3] (setting [9]); 4.19 µM in data set [1] (setting [4]); 0.004 µM in data set [1] (setting [5]). Moreover, the “IC50 Ratio WT:AKR1C3” value in data set [3] was found to be 4260. Besides, the “more cytotoxic in H460 cells than SN34454” value in data set [1] is 102 fold.
For the compound `CN1CCN(S(=O)(=O)c2cc([N+](=O)[O-])ccc2N(CCOS(C)(=O)=O)CCOS(C)(=O)=O)CC1` [Compound 641, ((2-((4-methylpiperazin-1-yl)sulfonyl)-4-nitrophenyl)azanediyl)bis(ethane-2,1-diyl) dimethanesulfonate], the IC50 in data set [2] (setting [6]) was found to be 5.91 µM; in data set [2] (setting [7]) it was 6.4 µM; in data set [3] (setting [8]), 2 nM; in data set [3] (setting [9]), 3110 nM; in data set [1] (setting [4]) it was 5.86 µM; in data set [1] (setting [5]) it was 0.003 µM. The “IC50 Ratio WT:AKR1C3” value in data set [3] came out at 2955. In addition, the “more cytotoxic in H460 cells than SN33540” value in data set [1] is recorded as 179 fold. Moreover, in data set [1], the “more cytotoxic in H460 cells than SN34118” value is recorded as 520 fold. Also, the “more cytotoxic in H460 cells than SN34454” value in data set [1] is 135 fold.
For `CS(=O)(=O)OCCN(CCBr)c1c(C(=O)NCCO)cc([N+](=O)[O-])cc1[N+](=O)[O-]` [PR-104A, 2-((2-bromoethyl)(2-((2-hydroxyethyl)-carbamoyl)-4,6-dinitrophenyl)amino)ethyl methanesulfonate, reference compound], the IC50 in data set [2] (setting [6]) turned out to be 55.8 µM; in data set [2] (setting [7]), 70.7 µM; in data set [3] (setting [8]), 1120 nM; in data set [3] (setting [9]) it was 41800 nM; in data set [1] (setting [4]), 50 µM; in data set [1] (setting [5]) it was 2.7 µM. Further, the “IC50 Ratio WT:AKR1C3” value in data set [3] is 50.

Usually IC50 stands for the concentration that inhibits the measured activity by half.
